Here are results for 22 molecules from patent US8232407B2, “Nitrogenous heterocyclic compounds with insecticidal activity, and the preparation and use thereof” (East China University of Science and Technology, priority 2008, dated 2012).

Format in all cases: in vivo
Holding throughout (conditions): in vivo

The test system of data set [1] is Pseudaletia separate Walker. As to the kind of experiment: Insecticidal activities to armyworm, leaf dipping and feeding. As for the experimental part:
(§1) Mortality (%)=(the number of the survival aphis in control group−the number of the survival aphis in the treatment group)/the number of the survival aphis in control group×100%
(3): Insecticidal Activities to Armyworm
Armyworm (Pseudaletia separate Walker) was tested by the way of leaf dipping and feeding. The test compound was exactly formulated with acetone into solutions having concentrations of 500, 250, 100, 50, 25, 12.5, 6.25, 3.13 and 1.57 ppm, respectively. Aqueous acetone solution was used as control. Fresh maize leaves were immersed in the solution for 3 seconds, dried at room temperature, and fed to the tested insects. Each treatment was tested with 10 insects and repeated for 3 tumblers (3 times). The number of killed insects was counted after 24 hours to calculate the mortality according to the above mentioned formula.

The next data set concerns Nilaparvata lugens. As to the kind of experiment: Insecticidal activities to plant hopper, spraying method. The method, boiled down: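 Nilaparvata lugens, 10 insects per tumbler, sprayed with 2 ml compound in acetone at 0.79-500 ppm, three replicates, aqueous acetone control. Dead insects counted after 24 h; mortality corrected against control survival.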
In a further data set the test system is Plutella xylostella. Put plainly: Insecticidal activities to diamondback moth, feeding dipped leaves. The protocol: as §1
(4): Insecticidal Activities to Diamondback Moth
Diamondback moth (Plutella xylostella) was tested by the way of feeding dippedleaves. Fresh cabbage leaves were immersed in above mentioned solution for 3 seconds, dried at room temperature, and fed to the tested insects. Each treatment was tested with 10 insects and repeated for 3 tumblers (3 times), while water was used as control. The number of killed insects was counted after 24 hours to calculate the mortality according to the above mentioned formula.

In a further data set the test system is Aphis craccivoral. Put plainly: Insecticidal activities to aphids, immersion method. The method, boiled down: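 Wingless adult aphids feeding on bean sprouts were dipped 5 s in 500 ppm compound (DMF stock diluted in 0.2 mL/L aqueous Triton X-100), blotted and held at 23° C. Dead counted at 24 h, three replicates; mortality corrected against Triton-only controls.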

In the case of `O=[N+]([O-])C(=Cc1ccc(CO)o1)C1=NCCN1Cc1cnc(Cl)s1` [Compound 82], the “Pseudaletia separate Walker Mortality (%) 500 ppm” value in data set [1] turned out to be 100%. Further, the “Nilaparvata lugens Mortality (%) 500 ppm” value with Nilaparvata lugens was found to be 100%. In addition, the “Plutella xylostella Mortality (%) 500 ppm” value with Plutella xylostella worked out at 100%. Further, in the data set on Aphis craccivoral, the “Aphis craccivoral Mortality (%) 500 ppm” value was determined as 100%.
`O=[N+]([O-])C(=Cc1oc(Cl)cc1Cl)C1=NCCN1Cc1cnc(Cl)s1` [Compound 76]: in data set [1], the “Pseudaletia separate Walker Mortality (%) 500 ppm” value came to 100%. Also, in the data set with Nilaparvata lugens, the “Nilaparvata lugens Mortality (%) 500 ppm” value came out at 100%. Besides, the “Plutella xylostella Mortality (%) 500 ppm” value in the data set on Plutella xylostella is recorded as 100%. Further, the “Aphis craccivoral Mortality (%) 500 ppm” value in the data set with Aphis craccivoral is reported as 100%.
For the molecule `CC(=C(C1=NCCN1C(C)c1ccc(Cl)nc1)[N+](=O)[O-])c1ccc(Cl)o1` (racemic) [Compound 136], the “Pseudaletia separate Walker Mortality (%) 500 ppm” value in data set [1] came out at 100%. In addition, the “Nilaparvata lugens Mortality (%) 500 ppm” value in the data set with Nilaparvata lugens was 100%. Also, in the data set with Plutella xylostella, the “Plutella xylostella Mortality (%) 500 ppm” value worked out at 100%. In the data set with Aphis craccivoral, the “Aphis craccivoral Mortality (%) 500 ppm” value was determined as 100%.
Turning to `C[N+]1=C(C(=Cc2ccc(Br)o2)[N+](=O)[O-])N(Cc2cnc(Cl)s2)CC1.[Cl-]` [Compound 279], the “Pseudaletia separate Walker Mortality (%) 500 ppm” value in data set [1] was 100%. In addition, the “Nilaparvata lugens Mortality (%) 500 ppm” value in the data set on Nilaparvata lugens was 100%. The “Plutella xylostella Mortality (%) 500 ppm” value in the data set with Plutella xylostella was 100%. Moreover, the “Aphis craccivoral Mortality (%) 500 ppm” value with Aphis craccivoral was 100%.
In the case of `C[N+]1=C(C(=Cc2ccc([N+](=O)[O-])s2)[N+](=O)[O-])N(Cc2cnc(Cl)s2)CC1.[Cl-]` [Compound 282], the “Pseudaletia separate Walker Mortality (%) 500 ppm” value in data set [1] was 100%. Also, the “Nilaparvata lugens Mortality (%) 500 ppm” value with Nilaparvata lugens was determined as 100%. In addition, the “Plutella xylostella Mortality (%) 500 ppm” value in the data set with Plutella xylostella is 100%. In the data set on Aphis craccivoral, the “Aphis craccivoral Mortality (%) 500 ppm” value stood at 100%.
Turning to `O=[N+]([O-])C(=Cc1cc2ccccc2[nH]1)C1=NCCN1Cc1ccc(Cl)nc1` [Compound 43], the “Pseudaletia separate Walker Mortality (%) 500 ppm” value in data set [1] was found to be 95%. Further, the “Nilaparvata lugens Mortality (%) 500 ppm” value in the data set on Nilaparvata lugens was 90%. In addition, in the data set on Plutella xylostella, the “Plutella xylostella Mortality (%) 500 ppm” value is given as 100%. Also, in the data set on Aphis craccivoral, the “Aphis craccivoral Mortality (%) 500 ppm” value is recorded as 76%.
In the same order, the values of `O=[N+]([O-])C(=Cc1ccc(Cl)o1)C1=NCCN1CC1CCOC1` (stereo not shown) [Compound 94] are 77%, 77%, 83% and 46%.
The corresponding values for `N#CC(=Cc1cc(Br)c(Br)o1)C1=NCCN1Cc1ccc(Cl)nc1` [Compound 144] are 90%, 100%, 100% and 87%.
In the same order, the values of `CC(=C(C1=NCCN1Cc1ccc(Cl)nc1)[N+](=O)[O-])c1ccco1` [Compound 111] are 77%, 53%, 25% and 45%.
As for `O=[N+]([O-])C(=Cc1oc(Br)cc1Br)C1=NCCCN1Cc1ccc(Cl)nc1` [Compound 56], in data set [1], the “Pseudaletia separate Walker Mortality (%) 500 ppm” value is listed as 100%. In the data set with Nilaparvata lugens, the “Nilaparvata lugens Mortality (%) 500 ppm” value came to 100%. For the same molecule, the “Plutella xylostella Mortality (%) 500 ppm” value in the data set with Plutella xylostella turned out to be 100%. In addition, the “Aphis craccivoral Mortality (%) 500 ppm” value in the data set on Aphis craccivoral is 100%.
As to `Cn1cccc1C=C(C1=[N+](C)CCN1Cc1ccc(Cl)nc1)[N+](=O)[O-].[Cl-]` [Compound 275], the “Pseudaletia separate Walker Mortality (%) 500 ppm” value in data set [1] came out at 100%. The “Nilaparvata lugens Mortality (%) 500 ppm” value with Nilaparvata lugens is on record as 100%. Moreover, in the data set on Plutella xylostella, the “Plutella xylostella Mortality (%) 500 ppm” value turned out to be 100%. In addition, the “Aphis craccivoral Mortality (%) 500 ppm” value with Aphis craccivoral came out at 100%.
In the case of `O=[N+]([O-])C(=Cc1cccs1)C1=NCCN1Cc1cnc(Cl)s1` [Compound 83], the “Pseudaletia separate Walker Mortality (%) 500 ppm” value in data set [1] is recorded as 100%. Further, the “Nilaparvata lugens Mortality (%) 500 ppm” value in the data set with Nilaparvata lugens is 100%. Further, the “Plutella xylostella Mortality (%) 500 ppm” value in the data set with Plutella xylostella is listed as 100%. In the data set on Aphis craccivoral, the “Aphis craccivoral Mortality (%) 500 ppm” value is 100%.
In the case of `O=[N+]([O-])C(=Cc1cncs1)C1=NCCN1Cc1ccc(Cl)nc1` [Compound 34], the “Pseudaletia separate Walker Mortality (%) 500 ppm” value in data set [1] is on record as 100%. For the same molecule, the “Nilaparvata lugens Mortality (%) 500 ppm” value in the data set on Nilaparvata lugens is given as 100%. For the same molecule, in the data set with Plutella xylostella, the “Plutella xylostella Mortality (%) 500 ppm” value was 100%. Also, in the data set on Aphis craccivoral, the “Aphis craccivoral Mortality (%) 500 ppm” value was found to be 100%.
As to `O=[N+]([O-])C(=Cc1ccncc1)C1=NCCN1Cc1ccc(Cl)nc1` [Compound 39], the “Pseudaletia separate Walker Mortality (%) 500 ppm” value in data set [1] is 35%. The “Nilaparvata lugens Mortality (%) 500 ppm” value with Nilaparvata lugens turned out to be 35%. Besides, in the data set on Plutella xylostella, the “Plutella xylostella Mortality (%) 500 ppm” value worked out at 21%. Further, the “Aphis craccivoral Mortality (%) 500 ppm” value with Aphis craccivoral came out at 24%.
In the case of `O=[N+]([O-])C(=Cc1ccc([N+](=O)[O-])o1)C1=NCCN1Cc1ccccc1` [Compound 105], the “Pseudaletia separate Walker Mortality (%) 500 ppm” value in data set [1] is on record as 98%. Also, in the data set with Nilaparvata lugens, the “Nilaparvata lugens Mortality (%) 500 ppm” value stood at 100%. Also, the “Plutella xylostella Mortality (%) 500 ppm” value with Plutella xylostella amounted to 90%. Moreover, in the data set on Aphis craccivoral, the “Aphis craccivoral Mortality (%) 500 ppm” value is reported as 80%.
In the same order, the values of `C[N+]1=C(C(=Cc2sc(Br)cc2Br)[N+](=O)[O-])N(Cc2ccc(Cl)nc2)CC1.[Cl-]` [Compound 269] are 100%, 100%, 100% and 100%.
The corresponding values for `O=[N+]([O-])C(=Cc1ccc[nH]1)C1=NCCN1Cc1ccc(Cl)nc1` [Compound 31] are 100%, 100%, 100% and 100%.
The corresponding values for `O=[N+]([O-])C(=Cc1cnc(Cl)s1)C1=NCCN1Cc1ccc(Cl)nc1` [Compound 35] are 100%, 100%, 100% and 100%.
As to `O=[N+]([O-])C(=Cc1cc(Cl)c(Cl)o1)C1=NCCN1Cc1ccccc1` [Compound 108], the “Pseudaletia separate Walker Mortality (%) 500 ppm” value in data set [1] is listed as 24%. The “Nilaparvata lugens Mortality (%) 500 ppm” value in the data set with Nilaparvata lugens came to 95%. In the data set on Plutella xylostella, the “Plutella xylostella Mortality (%) 500 ppm” value is 24%. Moreover, in the data set with Aphis craccivoral, the “Aphis craccivoral Mortality (%) 500 ppm” value was found to be 87%.
Take `CCc1ccc(C=C(C2=NCCN2CC2CCOC2)[N+](=O)[O-])o1` (stereo not shown) [Compound 101]: the “Pseudaletia separate Walker Mortality (%) 500 ppm” value in data set [1] is on record as 65%. For the same molecule, the “Nilaparvata lugens Mortality (%) 500 ppm” value in the data set with Nilaparvata lugens worked out at 65%. Besides, the “Plutella xylostella Mortality (%) 500 ppm” value in the data set on Plutella xylostella is reported as 78%. For the same molecule, in the data set with Aphis craccivoral, the “Aphis craccivoral Mortality (%) 500 ppm” value is 76%.
Consider `C[N+]1=C(C(=Cc2ccc([N+](=O)[O-])s2)[N+](=O)[O-])N(Cc2ccc(Cl)nc2)CC1.[Cl-]` [Compound 261], for which the “Pseudaletia separate Walker Mortality (%) 500 ppm” value in data set [1] is on record as 100%. In the data set on Nilaparvata lugens, the “Nilaparvata lugens Mortality (%) 500 ppm” value is 100%. In addition, in the data set on Plutella xylostella, the “Plutella xylostella Mortality (%) 500 ppm” value is recorded as 100%. Also, the “Aphis craccivoral Mortality (%) 500 ppm” value in the data set on Aphis craccivoral was 100%.
As for `CC[N+]1=C(C(=Cc2ccsc2)[N+](=O)[O-])N(Cc2ccc(Cl)nc2)CC1.[Cl-]` [Compound 292], the “Pseudaletia separate Walker Mortality (%) 500 ppm” value in data set [1] stood at 100%. For the same molecule, in the data set on Nilaparvata lugens, the “Nilaparvata lugens Mortality (%) 500 ppm” value turned out to be 100%. Moreover, the “Plutella xylostella Mortality (%) 500 ppm” value in the data set with Plutella xylostella came out at 100%. In the data set with Aphis craccivoral, the “Aphis craccivoral Mortality (%) 500 ppm” value was 100%.
